Experimental data: patent publication US12594307B2, “Compositions and methods of using inducible signaling for tunable dynamics in microbial communities” (priority 2019, dated 2026)
Entries after “also recorded” stand apart in the source; their conditions may differ.

Columns and labels:
[1] = tested on: iSLC and SLC strains co-culture; assay: co-culture of iSLC and SLC strains under a gradient of inducer concentrations (microfluidics); assay type: cell-based, E. coli
Text: The microscopy and microfluidics techniques used are similar to those previously reported. The microfluidic devices were constructed from PDMS (polydimethylsiloxane), which was molded and baked on a silicon wafer with micronscale features formed by crosslinked photoresist. Once the PDMS hardened, it was peeled off, and individual devices were cut out. In order to connect fluid lines to the device, holes where punched in correspondence of the inlets and outlets of the device. Afterwards, the devices were bonded onto glass slides using plasma activation. Before each experiment, the devices were left for 30 minutes in a vacuum chamber. Meanwhile, 1 mL of overnight cell culture was spun down by centrifugation and re-suspended in 10 μL of fresh media with appropriate antibiotics. After taking the device out of the vacuum chamber, a single droplet of resuspended cells was positioned in correspondence of the outlet opening. Similarly, droplets of sterile fresh media were placed in correspondence of the inlets openings. In all cases, 0.075% Tween20 was added to the medium to prevent cells from sticking to the PDMS walls. After all chip features were wetted, the fluids lines were plugged in and the height of the inlet was raised 10 to 40 cm above the device. The outlet syringe was instead placed at the same height of the device. For co-culturing experiments in FIG. 4, cells were cultured individually overnight and eventually spun down and re-suspended together (1:1 ratio) allowing for a single droplet to be loaded on the device. […] At 4× magnification fluorescence exposure times were 2 seconds at 30% intensity for both gfp and cfp while at 10× magnification they were 200 us at 30% intensity for both GFP and CFP. […]
(§1) Fluorescence intensity profiles were obtained by analyzing frames from the fluorescent channels. The mean fluorescence values were calculated by drawing a rectangle surrounding each trap individually and extracting the z-axis profile on ImageJ. Fluorescence values shown in FIG. 2 were normalized by dividing all data by a constant factor. […]

iQS strain = iQS strain fluorescence response to pCA, microwell plate reader; assay type: cell-based, Escherichia Coli; settings: FIG. 1D
Protocol: To design an exemplary iQS system, the two-step pathway which converts pCA into p-coumaroyl-HSL (pC-HSL) was genetically reconstructed through the production of the intermediate molecule p-coumaroyl-CoA (FIG. 1A). The first conversion is catalyzed by the p-coumaric acid-CoA ligase encoded by the 4CL2nt gene from the plant Nicotiana tabacum while the second step is catalyzed by the RpaI synthase. Additionally, superfolder green fluorescent protein (sfGFP) was added to be able to monitor the inducible dynamics. […] Escherichia Coli was chosen as the host chassis for the double plasmid circuit. The methods described in Example 1 are also applicable to Examples 2, 3, and 4.
(§2) The iSLC and SLC strains were both cultured in lysogeny broth (LB) media with 50 μg mL^−1 kanamycin, 34 μg mL^−1 chloramphenicol and 0.2% glucose for strains containing ColE1 origin and p15A origin plasmids in a 37° C. shaking incubator. Plasmid pTD103 RpaR-RpaI-LAA-sfGFP^21, ptD103-CFP were constructed by as described in previous studies (see, e.g., FIG. 11). Both plasmids pAM014 and pAM021 were obtained by inserting the 4CL2nt gene under the constitutive promoter J23106 from the Anderson promoter library. The 4CL2nt gene and the promoter were synthesized with overlapping PCR of long oligonucleotides (IDT). All plasmids were constructed by Gibson assembly followed by transformation into DH5α (Thermofisher) chemically competent E. coli. All plasmids were verified by Sanger sequencing before transformation into E. coli strain MG1655.
(§3) For plate reader experiments, the appropriate strains were seeded from a −80° C. glycerol stock into 3 ml LB with 0.2% glucose and appropriate antibiotics and incubated in a 37° C. shaking incubator. The following day, 2 μL of overnight culture were added to 200 μL fresh media containing appropriate antibiotics in a standard Falcon tissue culture 96-well flat bottom plate. Cells were incubated at 37° C. shaking in a Tecan Infinite M200 Pro. Cells were grown for about 12 hours. The optical density at 600 nm absorbance was measured every 10 minutes.

iSLC strain [2] = assay: iSLC kill switch induction in microfluidic traps; assay type: cell-based, E. coli; settings: induction with 500 nM pCA after saturation of traps; 406 traps
Text: The microscopy and microfluidics techniques used are similar to those previously reported. The microfluidic devices were constructed from PDMS (polydimethylsiloxane), which was molded and baked on a silicon wafer with micronscale features formed by crosslinked photoresist. Once the PDMS hardened, it was peeled off, and individual devices were cut out. In order to connect fluid lines to the device, holes where punched in correspondence of the inlets and outlets of the device. Afterwards, the devices were bonded onto glass slides using plasma activation. Before each experiment, the devices were left for 30 minutes in a vacuum chamber. Meanwhile, 1 mL of overnight cell culture was spun down by centrifugation and re-suspended in 10 μL of fresh media with appropriate antibiotics. […] At 4× magnification fluorescence exposure times were 2 seconds at 30% intensity for both gfp and cfp while at 10× magnification they were 200 us at 30% intensity for both GFP and CFP. […]
as §1

wild type E. Coli strain = assay: wild type E. Coli growth curves in a range of p-coumaric acid concentrations (plate reader); assay type: cell-based; settings: within the characterized concentration range; FIG. 1E
Protocol: as §3

iSLC strain [3] = assay: cells survival assay (CFU count) of iSLC strain in liquid culture; assay type: cell-based, E. coli; settings: 3 mL culture tubes, eight hours; 300 nM, 500 nM, 1 μM; independent of inducer concentration; FIG. 3D
Protocol: Cell viability assays to test the efficacy of iQS as a kill switch were done by measuring colony forming units (CFUs), following a protocol found in the literature. Cells were grown under survival conditions in LB with 0.2% glucose which inhibits the LuxI promoter thanks to the presence of a binding site for the CAP-CAMP activating complex. Following overnight growth, they were transferred into four cultures of fresh LB medium with 0.2% glucose, 300 nM p-coumaric acid, 500 nM p-coumaric acid and 1 μM p-coumaric acid, respectively. Samples were collected every 2 hours and serially diluted in PBS over a 7-log range and spotted (2 μL) onto LB agar plates with 0.2% glucose. The equations used arc: CFU/ml=(number of colonies)×(dilution factor)/0.002 mL, survival ratio (log 10)=log (CFU/ml with glucose)/(CFU/ml with p-coumaric acid).
Experiments were performed to investigate whether inducer concentrations could be modulated during culture to show the culture can switch between states of constant growth (circuit quiescence), synchronized oscillations in population density (cyclic cargo release) and inducible population death (kill switch). To confirm this principle, experiments were performed to test the ability to drive the population dynamics from state one (population growth) to state three (population death) through pCA induction (FIG. 3A). […]

iSLC strain [4] = assay: iSLC strain population dynamics in microfluidic inducer gradient device; assay type: cell-based, E. coli
Protocol: as §2
The microscopy and microfluidics techniques used are similar to those previously reported. The microfluidic devices were constructed from PDMS (polydimethylsiloxane), which was molded and baked on a silicon wafer with micronscale features formed by crosslinked photoresist. Once the PDMS hardened, it was peeled off, and individual devices were cut out. In order to connect fluid lines to the device, holes where punched in correspondence of the inlets and outlets of the device. Afterwards, the devices were bonded onto glass slides using plasma activation. […]

lux QS system = assay: crosstalk of p-coumaric acid with the lux QS system, growth curves (plate reader); assay type: cell-based, E. coli; settings: range of pCA concentrations; FIG. 9
Protocol: as §3
Experiments were performed to investigate the orthogonal properties of the iQS circuit by co-culturing the iSLC with a non-inducible SLC strain based on the lux QS system, one of the most commonly used and well understood QS systems in synthetic biology (FIG. 4A). […] Next, a previously described microfluidic chip was used (FIG. 2D and FIG. 7) to co-culture the iSLC and SLC strains (starting at 1:1 ratio) under a gradient of inducer concentrations. […] Without inducer, the quiescent iSLC strain was able to displace the SLC strain due to an advantage in population growth rate. At intermediate concentrations (15 nM), stable co-culture of both strains were maintained with independently sustained oscillations for more than 40 hours.

O=C(O)/C=C/c1ccc(O)cc1 [pCA, p-coumaric acid]
duration of stable co-culture with independently sustained oscillations ([1]; 15 nM, starting 1:1 ratio): more than 40 hours | co-culture outcome at high pCA concentration ([1]; 110 nM, starting 1:1 ratio): death of all iSLC cells | co-culture outcome at inducer values higher than 340 nM ([1]; higher than 340 nM, FIG. 10): iSLC death and SLC takeover | iQS circuit behavior at intermediate inducer levels (iQS strain; 1 nM and 10 nM pCA): population-dependent switch-like behavior | iQS circuit behavior at high inducer concentrations (iQS strain; 100 nM to 10 μM pCA): linear relationship between fluorescence expression and population density | optical density threshold of steep increase in fluorescence signal (iQS strain; intermediate levels (1 nM and 10 nM) pCA): around 0.3 | microfluidic traps with cell death after synchronized lysis event (iSLC strain [2]): more than 97% | toxicity to wild type E. Coli (growth curves) (wild type E. Coli strain): not toxic | cell survival (CFU) (iSLC strain [3]): several order of magnitude decrease | fraction of all microfluidics traps able to survive (iSLC strain [4]; high pCA concentrations 110 nM to 1 μM, universal cell lysis): < 3% | average period of sustained synchronized oscillations (iSLC strain [4]; intermediate inducer concentration 15 nM): approximately 200 minutes | crosstalk with lux QS system / growth curves (lux QS system): absence of crosstalk; also recorded: growth curves are unaffected
